Assay results taken from patent US10597388B2, “Pyridazinone herbicides” (FMC CORPORATION, priority 2014, dated 2020).

Legend:
Assay in all cases: Test D controlled growth environment herbicide test, pre- and postemergence
Type in all cases: in vivo
[1] = test system: barley, spring (spring barley, Hordeum vulgare)
In short: (§1)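 Rating is visual, 0–100 scale (100 = complete control), made against untreated plants 14–21 d after treatment in controlled growth conditions. Postemergence sprays went onto 1- to 4-leaf plants in peat medium; preemergence sprays onto silt loam after sowing; formulation included a surfactant.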

[2] = test system: barley, winter (winter barley, Hordeum vulgare)
In short: as §1

[3] = test system: bluegrass (annual bluegrass, Poa annua)
In short: as §1

[4] = test system: canarygrass (Phalaris minor)
In short: as §1

[5] = test system: chickweed (common chickweed, Stellaria media)
In short: as §1

[6] = test system: deadnettle (henbit deadnettle, Lamium amplexicaule)
In short: as §1

[7] = test system: field poppy (Papaver rhoeas)
In short: as §1

[8] = test system: foxtail, green (green foxtail, Setaria viridis)
In short: as §1

[9] = test system: mustard, wild (wild mustard, Sinapis arvensis)
In short: as §1

[10] = test system: radish, wild (wild radish, Raphanus raphanistrum)
In short: as §1

[11] = test system: ryegrass, Italian (Italian ryegrass, Lolium multiflorum)
In short: as §1

[12] = test system: wheat, winter (winter wheat, Triticum aestivum)
In short: as §1

[13] = test system: windgrass (Apera spica-venti)
In short: as §1

[14] = Postemergence, 31 g ai/ha, scale 0 to 100 (0 no effect, 100 complete control)
[15] = Postemergence, 125 g ai/ha, visual rating on scale 0 (no effect) to 100 (complete control), 14 to 21 d
[16] = Postemergence, 250 g ai/ha, scale 0 to 100 (0 no effect, 100 complete control)
[17] = Preemergence, 62 g ai/ha, scale 0 to 100 (0 no effect, 100 complete control)
[18] = Preemergence, 125 g ai/ha, scale 0 to 100 (0 no effect, 100 complete control)
[19] = Preemergence, 250 g ai/ha, scale 0 to 100 (0 no effect, 100 complete control)
[20] = postemergence, 62 g ai/ha, scale 0 to 100, 0 no effect, 100 complete control

In the case of `CC(=O)Oc1c(C)nn(C)c(=O)c1-c1c(C)sc2ccc(C)cc12` [Compound 25], the “Plant response rating, Barley, Spring” value [1, 14] is reported as 0, the “Plant response rating, Barley, Spring” value [1, 15] is reported as 0 and the “Plant response rating, Barley, Spring” value [1, 16] is reported as 10. The “Plant response rating (scale of 0 to 100), Barley, Spring” value ([1]; Preemergence, 31 g ai/ha) was 0, the “Plant response rating, Barley, Spring” value [1, 17] was 0 and the “Plant response rating, Barley, Spring” value [1, 18] was 0. The “Barley, Spring plant response rating” value [1, 19] was 0, the “Plant response rating, Barley, Spring” value [1, 20] was 0 and the “Plant response rating, Barley, Winter” value [2, 14] was 0. The “Plant response rating, Barley, Winter” value [2, 15] was 0, the “Plant response rating, Barley, Winter” value [2, 16] was 10 and the “Plant response rating (scale of 0 to 100), Barley, Winter” value ([2]; Preemergence, 31 g ai/ha) was 0. For the same compound, the “Plant response rating, Barley, Winter” value [2, 17] was 0, the “Plant response rating, Barley, Winter” value [2, 18] was 5 and the “Barley, Winter plant response rating” value [2, 19] was 20. The “Plant response rating, Barley, Winter” value [2, 20] was 0, the “Bluegrass plant response rating” value [3, 14] was 10 and the “Plant response rating, Bluegrass” value [3, 15] was 30. The “Plant response rating, Bluegrass” value [3, 16] was 40, the “Plant response rating (scale of 0 to 100), Bluegrass” value ([3]; Preemergence, 31 g ai/ha) was 25 and the “Plant response rating, Bluegrass” value [3, 17] was 35. The “Plant response rating, Bluegrass” value [3, 18] was 40, the “Bluegrass plant response rating” value [3, 19] was 75 and the “Plant response rating, Bluegrass” value [3, 20] was 20. The “Canarygrass plant response rating” value [4, 14] was 70, the “Plant response rating, Canarygrass” value [4, 15] was 80 and the “Plant response rating, Canarygrass” value [4, 16] was 85. The “Plant response rating (scale of 0 to 100), Canarygrass” value ([4]; Preemergence, 31 g ai/ha) was 80, the “Plant response rating, Canarygrass” value [4, 17] was 80 and the “Plant response rating, Canarygrass” value [4, 18] was 95. For the same compound, the “Plant response rating, Canarygrass” value [4, 19] was 100, the “Plant response rating, Canarygrass” value [4, 20] was 80 and the “Chickweed plant response rating” value [5, 14] was 98. The “Plant response rating, Chickweed” value [5, 15] was 100, the “Plant response rating, Chickweed” value [5, 16] was 100 and the “Plant response rating (scale of 0 to 100), Chickweed” value ([5]; Preemergence, 31 g ai/ha) was 95. The “Plant response rating, Chickweed” value [5, 17] was 100, the “Plant response rating, Chickweed” value [5, 18] was 100 and the “Plant response rating, Chickweed” value [5, 19] was 100. The “Plant response rating, Chickweed” value [5, 20] was 98, the “Deadnettle plant response rating” value [6, 14] was 5 and the “Plant response rating, Deadnettle” value [6, 15] was 20. The “Plant response rating, Deadnettle” value [6, 16] was 45, the “Plant response rating (scale of 0 to 100), Deadnettle” value ([6]; Preemergence, 31 g ai/ha) was 0 and the “Plant response rating, Deadnettle” value [6, 17] was 0. The “Plant response rating, Deadnettle” value [6, 18] was 0, the “Plant response rating, Deadnettle” value [6, 19] was 50 and the “Plant response rating, Deadnettle” value [6, 20] was 10. The “Field Poppy plant response rating” value [7, 14] was 70, the “Plant response rating, Field Poppy” value [7, 15] was 100 and the “Plant response rating, Field Poppy” value [7, 16] was 100. For the same compound, the “Plant response rating (scale of 0 to 100), Field Poppy” value ([7]; Preemergence, 31 g ai/ha) was 95, the “Plant response rating, Field Poppy” value [7, 17] was 100 and the “Plant response rating, Field Poppy” value [7, 18] was 100. For the same compound, the “Plant response rating, Field Poppy” value [7, 19] was 100, the “Plant response rating, Field Poppy” value [7, 20] was 80 and the “Foxtail, Green plant response rating” value [8, 14] was 60. The “Plant response rating, Foxtail, Green” value [8, 15] was 70, the “Plant response rating, Foxtail, Green” value [8, 16] was 75 and the “Plant response rating (scale of 0 to 100), Foxtail, Green” value ([8]; Preemergence, 31 g ai/ha) was 35. For the same compound, the “Plant response rating, Foxtail, Green” value [8, 17] was 90, the “Plant response rating, Foxtail, Green” value [8, 18] was 95 and the “Plant response rating, Foxtail, Green” value [8, 19] was 100. The “Plant response rating, Foxtail, Green” value [8, 20] was 65, the “Mustard, Wild plant response rating” value [9, 14] was 20 and the “Plant response rating, Mustard, Wild” value [9, 15] was 70. The “Plant response rating, Mustard, Wild” value [9, 16] was 85, the “Plant response rating (scale of 0 to 100), Mustard, Wild” value ([9]; Preemergence, 31 g ai/ha) was 0 and the “Plant response rating, Mustard, Wild” value [9, 17] was 0. For the same compound, the “Plant response rating, Mustard, Wild” value [9, 18] was 20, the “Plant response rating, Mustard, Wild” value [9, 19] was 60 and the “Plant response rating, Mustard, Wild” value [9, 20] was 40. For the same compound, the “Radish, Wild plant response rating” value [10, 14] was 15, the “Plant response rating, Radish, Wild” value [10, 15] was 65 and the “Plant response rating, Radish, Wild” value [10, 16] was 75. The “Plant response rating (scale of 0 to 100), Radish, Wild” value ([10]; Preemergence, 31 g ai/ha) was 0, the “Plant response rating, Radish, Wild” value [10, 17] was 0 and the “Plant response rating, Radish, Wild” value [10, 18] was 0. For the same compound, the “Plant response rating, Radish, Wild” value [10, 19] was 0, the “Plant response rating, Radish, Wild” value [10, 20] was 35 and the “Ryegrass, Italian plant response rating” value [11, 14] was 75. For the same compound, the “Plant response rating, Ryegrass, Italian” value [11, 15] was 85, the “Plant response rating, Ryegrass, Italian” value [11, 16] was 90 and the “Plant response rating (scale of 0 to 100), Ryegrass, Italian” value ([11]; Preemergence, 31 g ai/ha) was 95. For the same compound, the “Plant response rating, Ryegrass, Italian” value [11, 17] was 100, the “Plant response rating, Ryegrass, Italian” value [11, 18] was 100 and the “Plant response rating, Ryegrass, Italian” value [11, 19] was 100. For the same compound, the “Plant response rating, Ryegrass, Italian” value [11, 20] was 85, the “Wheat, Winter plant response rating” value [12, 14] was 0 and the “Plant response rating, Wheat, Winter” value [12, 15] was 5. For the same compound, the “Plant response rating, Wheat, Winter” value [12, 16] was 20, the “Plant response rating (scale of 0 to 100), Wheat, Winter” value ([12]; Preemergence, 31 g ai/ha) was 0 and the “Plant response rating, Wheat, Winter” value [12, 17] was 0. For the same compound, the “Plant response rating, Wheat, Winter” value [12, 18] was 0, the “Plant response rating, Wheat, Winter” value [12, 19] was 20 and the “Plant response rating, Wheat, Winter” value [12, 20] was 0. For the same compound, the “Windgrass plant response rating” value [13, 14] was 70, the “Plant response rating, Windgrass” value [13, 15] was 85 and the “Plant response rating, Windgrass” value [13, 16] was 85. For the same compound, the “Plant response rating (scale of 0 to 100), Windgrass” value ([13]; Preemergence, 31 g ai/ha) was 75, the “Plant response rating, Windgrass” value [13, 17] was 85 and the “Plant response rating, Windgrass” value [13, 18] was 100. For the same compound, the “Plant response rating, Windgrass” value [13, 19] was 100 and the “Plant response rating, Windgrass” value [13, 20] was 75.
